Assay results as given in patent US8993574B2, “Pyrrole antifungal agents” (F2G Ltd, priority 2008, dated 2015).
Converted amounts (≈) assume the structure as drawn.

Columns and labels:
Type in all cases: cell-based
[1] = test system: Aspergillus terreus AT49; assay: MIC, YAG medium; details: 24 h at 35° C, MIC banded into grades; for MIC: Aspergillus terreus, read-out: MIC grade, A. terreus 49
Outline: (§1)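 Endpoint is growth at OD 485 nm after 24 h at 35° C, with MIC defined as the lowest drug level giving >70% inhibition relative to untreated wells and recorded in mg/L. Tests ran in YAG broth with 1−2×10^4 cfu/mL spore inocula from Sabouraud-grown cultures. Drug ranges were 50-0.05 mg/L, repeated at 0.5-0.0005 mg/L when needed.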

[2] = test system: Aspergillus flavus; assay: MIC, YAG medium; details: 24 h at 35° C, MIC banded into grades; for MIC: Aspergillus flavus, 24 h, read-out: MIC grade, A. flavus
Outline: as §1

[3] = test system: Aspergillus terreus AT4; assay: MIC, YAG medium; details: 24 h at 35° C, MIC banded into grades; for MIC: Aspergillus terreus, read-out: MIC grade, A. terreus
Outline: as §1

[4] = test system: Aspergillus fumigatus AF293; assay: MIC, YAG medium; details: 24 h at 35° C, MIC banded into grades; for MIC: Aspergillus fumigatus, read-out: MIC grade, A. fumigatus
Outline: as §1

[5] = test system: Aspergillus fumigatus AF210; assay: MIC, YAG medium; details: 24 h at 35° C, MIC banded into grades; for MIC: Aspergillus fumigatus, read-out: MIC grade, A. fumigatus 210
Outline: as §1

[6] = test system: Aspergillus niger; assay: MIC, YAG medium; details: 24 h at 35° C, MIC banded into grades; for MIC: Aspergillus niger, read-out: MIC grade, A. niger
Outline: as §1

[7] = test system: Aspergillus terreus AT49; assay: MIC, RPMI medium; details: for MIC grade, A. terreus 49: MIC banded into grades; for MIC: Aspergillus terreus, AT49, MIC banded into grades, read-out: MIC grade, A. terreus 49
Outline: (§2)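 Minimum inhibitory concentrations were determined in glucose-supplemented (2%) RPMI buffered to pH 7.0 with 0.135 M MOPS. Wells held 1−2×10^4 cfu/mL and compound from 50 to 0.05 mg/L, incubated 24-48 h at 35° C, with >80% growth reduction by OD 485 nm as endpoint.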

[8] = test system: Aspergillus flavus; assay: MIC, RPMI medium; details: MIC banded into grades; for MIC: Aspergillus flavus, read-out: MIC grade, A. flavus
Outline: as §2

[9] = test system: Aspergillus terreus AT4; assay: MIC, RPMI medium; details: for MIC grade, A. terreus: MIC banded into grades; for MIC: Aspergillus terreus, AT4, MIC banded into grades, read-out: MIC grade, A. terreus
Outline: as §2

[10] = test system: Aspergillus fumigatus AF293; assay: MIC, RPMI medium; details: for MIC grade, A. fumigatus: MIC banded into grades; for MIC: Aspergillus fumigatus, AF293, MIC banded into grades, read-out: MIC grade, A. fumigatus
Outline: as §2

[11] = test system: Aspergillus fumigatus AF210; assay: MIC, RPMI medium; details: for MIC grade, A. fumigatus 210: MIC banded into grades; for MIC: Aspergillus fumigatus, AF210, MIC banded into grades, read-out: MIC grade, A. fumigatus 210
Outline: as §2

[12] = test system: Aspergillus niger; assay: MIC, RPMI medium; details: MIC banded into grades; for MIC: Aspergillus niger, read-out: MIC grade, A. niger
Outline: as §2

Row | Compound | MIC [1] [µg/mL] | MIC [2] [µg/mL] | MIC [3] [µg/mL] | MIC [4] [µg/mL] | MIC [5] [µg/mL] | MIC [6] [µg/mL] | MIC [7] [µg/mL] | MIC [8] [µg/mL] | MIC [9] [µg/mL] | MIC [10] [µg/mL] | MIC [11] [µg/mL] | MIC [12] [µg/mL] | MIC grade, A. terreus 49 [1] | MIC grade, A. flavus [2] | MIC grade, A. terreus [3] | MIC grade, A. fumigatus [4] | MIC grade, A. fumigatus 210 [5] | MIC grade, A. niger [6] | MIC grade, A. terreus 49 [7] | MIC grade, A. flavus [8] | also measured
1 | CCOCCCn1c(C)cc(-c2ccccc2)c1C(=O)C(=O)Nc1ccc(N2CCN(c3cc(C)cc(C)n3)CC2)cc1 [Example 136, N-{4-[4-(4,6-Dimethyl-pyridin-2-yl)-piperazin-1-yl]-phenyl}-2-[1-(3-ethoxy-propyl)-5-methy-3-phenyl-1H-pyrrol-2-yl]-2-oxo-acetamide] |  |  |  |  |  |  |  |  |  |  |  |  | 3 (A grade of 3 represents an MIC of less than 1 mg/L) | 3 (A grade of 3 represents an MIC of less than 1 mg/L) | 2 (A grade of 2 represents an MIC of from 1 to 10 mg/L) | 3 (A grade of 3 represents an MIC of less than 1 mg/L) | 3 (A grade of 3 represents an MIC of less than 1 mg/L) | 3 (A grade of 3 represents an MIC of less than 1 mg/L) | 2 (A grade of 2 represents an MIC of from 1 to 10 mg/L) | 2 (A grade of 2 represents an MIC of from 1 to 10 mg/L) | MIC grade, A. terreus [9]: 2 (A grade of 2 represents an MIC of from 1 to 10 mg/L); MIC grade, A. fumigatus [10]: 2 (A grade of 2 represents an MIC of from 1 to 10 mg/L); MIC grade, A. fumigatus 210 [11]: 2 (A grade of 2 represents an MIC of from 1 to 10 mg/L); MIC grade, A. niger [12]: 2 (A grade of 2 represents an MIC of from 1 to 10 mg/L)
2 | Cc1cc(-c2ccccc2)c(C(=O)C(=O)Nc2ccc(N3CCCC3)nc2)n1C [Example 99, 2-(1,5-Dimethyl-3-phenyl-1H-pyrrol-2-yl)-2-oxo-N-(6-pyrrolidin-1-yl-pyridin-3-yl)-acetamide] | < 1 | < 1 | < 1 | 1 to 10 (≈ 2.57 to 25.7 µM) | < 1 | 1 to 10 (≈ 2.57 to 25.7 µM) | < 1 | < 1 | < 1 | < 1 | 1 to 10 (≈ 2.57 to 25.7 µM) | < 1 |  |  |  |  |  |  |  |  | 
3 | COC(=O)Cn1cccc1C(=O)C(=O)Nc1ccc(N2CCN(c3cc(C)cc(C)n3)CC2)cc1 [Example 61, (2-{4-[4-(4,6-Dimethyl-pyridin-2-yl)-piperazin-1-yl]-phenylaminooxalyl}-pyrrol-1-yl)-acetic acid methyl ester] |  |  |  |  |  |  |  |  |  |  |  |  | 1 (a grade of 1 represents an MIC of greater than 10 mg/L) | 1 (a grade of 1 represents an MIC of greater than 10 mg/L) | 1 (a grade of 1 represents an MIC of greater than 10 mg/L) | 1 (a grade of 1 represents an MIC of greater than 10 mg/L) | 2 (A grade of 2 represents an MIC of from 1 to 10 mg/L) | 1 (a grade of 1 represents an MIC of greater than 10 mg/L) | 1 (a grade of 1 represents an MIC of greater than 10 mg/L) | 1 (a grade of 1 represents an MIC of greater than 10 mg/L) | MIC grade, A. terreus [9]: 1 (a grade of 1 represents an MIC of greater than 10 mg/L); MIC grade, A. fumigatus [10]: 1 (a grade of 1 represents an MIC of greater than 10 mg/L); MIC grade, A. fumigatus 210 [11]: 2 (A grade of 2 represents an MIC of from 1 to 10 mg/L); MIC grade, A. niger [12]: 1 (a grade of 1 represents an MIC of greater than 10 mg/L)
4 | CCCNC(=O)C(=O)c1cc(-c2ccccc2)cn1CCOC [Example 121, 2-[1-(2-Methoxy-ethyl)-4-phenyl-1H-pyrrol-2-yl]-2-oxo-N-propyl-acetamide] | 1 to 10 (≈ 3.18 to 31.8 µM) | > 10 | 1 to 10 (≈ 3.18 to 31.8 µM) | > 10 | 1 to 10 (≈ 3.18 to 31.8 µM) | > 10 | > 10 | > 10 | > 10 | > 10 | > 10 | > 10 |  |  |  |  |  |  |  |  | 

Further lines, with some results ahead:

Row | MIC [1] [µg/mL] | MIC [2] [µg/mL] | MIC [3] [µg/mL] | MIC [4] [µg/mL] | MIC [5] [µg/mL] | MIC [6] [µg/mL] | MIC [7] [µg/mL] | MIC [8] [µg/mL] | MIC [9] [µg/mL] | MIC [10] [µg/mL] | MIC [11] [µg/mL] | MIC [12] [µg/mL] | Compound | MIC grade, A. terreus 49 [1] | MIC grade, A. flavus [2] | MIC grade, A. terreus [3] | MIC grade, A. fumigatus [4] | MIC grade, A. fumigatus 210 [5] | MIC grade, A. niger [6] | MIC grade, A. terreus 49 [7] | MIC grade, A. flavus [8] | also measured
5 | < 1 | < 1 | < 1 | < 1 | < 1 | < 1 | < 1 | < 1 | < 1 | < 1 | < 1 | < 1 | CCn1c(C)cc(-c2ccccc2)c1C(=O)C(=O)Nc1ccc(N2CCN(c3cc(C)cc(C)n3)CC2)cc1 [Example 34, N-{4-[4-(4,6-Dimethyl-pyridin-2-yl)-piperazin-1-yl]-phenyl}-2-(1-ethyl-5-methyl-3-phenyl-1H-pyrrol-2-yl)-2-oxo-acetamide] |  |  |  |  |  |  |  |  | 
6 | < 1 | < 1 | < 1 | < 1 | < 1 | < 1 | < 1 | < 1 | < 1 | < 1 | < 1 | < 1 | Cc1cc(-c2ccccc2)c(C(=O)C(=O)Nc2ccc(N3CCN(c4ccc(CN5CCOCC5)cn4)CC3)cc2)n1C [Example 120, 2-(1,5-Dimethyl-3-phenyl-1H-pyrrol-2-yl)-N-{4-[4-(5-morpholin-4-ylmethyl-pyridin-2-yl)-piperazin-1-yl]-phenyl}-2-oxo-acetamide] |  |  |  |  |  |  |  |  | 
